Measurements published in patent US12162892B2, “CD16a binding agents and uses thereof” (KLEO PHARMACEUTICALS, INC., priority 2018, dated 2024).
Several values for one entry are separate records, joined by “and”; a condition that tells them apart may be missing. Equal values may be shown once.

What was measured:
Assay type in all cases: binding
[1] = molecular target: T1, CD16a158V (Homo sapiens, UniProt P08637, F176V); experiment: Biotinylated Ligand ELISA Assay; settings: Biotinylated CD16a protein at 10 nM
T1 sequence (P08637 17-208 F176V): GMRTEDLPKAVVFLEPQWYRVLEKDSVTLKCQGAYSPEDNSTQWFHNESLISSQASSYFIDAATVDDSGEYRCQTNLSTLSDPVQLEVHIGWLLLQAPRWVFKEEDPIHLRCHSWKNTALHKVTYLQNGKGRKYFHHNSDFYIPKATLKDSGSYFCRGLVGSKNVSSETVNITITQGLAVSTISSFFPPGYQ
Procedure: (§1) Coat ELISA plates (Costar 3922) using Neutravidin (Thermo 31000) at 5 μg/ml (100 μl/well) for 1 hour at 37° C. Plates were washed 4 times with PBST (PBS, 0.05% Tween 20-200 μl, 1 minute/wash) then blocked using 200 μl 5% bovine serum albumin (BSA, Heat Shock, Fraction V-American Bio AB01088-00100) in PBST for 2 hours at 25° C. with moderate shaking. BSA was removed and plates were washed. Biotinylated ligands diluted in PBSTB (PBST+0.1% BSA) were then added (100 μl/well) and incubated for 1 hour at 25° C. with gentle shaking. Ligands were removed and plates were washed. Any remaining unoccupied neutravidin binding sites were blocked by adding 100 μM Biotin (Fisher BP232-1) (100 μl/well) and incubated for 1 hour at 25° C. with gentle shaking. Plates were then washed. […] Protein was removed and plates were washed. Streptavidin-HRP (Invitrogen 434323) diluted 1:5000 in PBSTB was added (100 μl/well) and incubated for 1 hour at 25° C. with gentle shaking. Wash plates. Substrate (Super Signal ELISA Pico Chemiluminescent Substrate-Thermo 37069) was added (100 μl/well) and plates were incubated for 5 minutes at 25° C. with gentle shaking. Luminescence was then measured on the Biotek Synergy H1 microplate reader.

[2] = molecular target: T2, CD16a158F (Homo sapiens, UniProt P08637); experiment: Biotinylated Ligand ELISA Assay; set-up: purchased Acro Biosystems CDA-H82E8; settings: Biotinylated CD16a protein at 10 nM
T2 sequence (P08637 17-208 limits assumed): as the sequence (P08637 17-208 F176V) above, with V160F counted along it
Procedure: as §1

[3] = molecular target: T1, CD16a158V; experiment: Microscale Thermophoresis; settings: read-out: MST-CD16a158V KD
Procedure: Target proteins (poly-histidine tagged, 600 nM) were fluorescently labeled combination with an equal volume of dye (200 nM, His-Tag labeling kit RED-tris-NTA NanoTemper: MO-L008) PBST. The mixture rotated in the dark for 45 min before being spun down at 12000 rpm for 15 min to remove uncomplexed material. The fluorescence of the removed supernatant was adjusted to for a test concentration of 40-80 nM (2× the final measured). Test ligands were prepared across a 12-point dilution series in a 96-well PCR plate at a volume of 20 uL at 2× the concentration desired for testing (0.2% BSA in PBST). The dilution series was then combined with an equal volume of the labeled target at 2× the concentration desired for testing. Capillaries were added to the wells of the combined target/ligand complex and measured by MST. Measurements were taken using a Nanotemper Monolith NT.115, and the data was analyzed using NanoTemper MO.Control software.

[4] = test system: CD16a158V; experiment: NHS-Ester ELISA Assay; settings: NHS-Ester ligands 250 μM; 10 nM biotinylated CD16a protein
Procedure: (§2) Pretreat ELISA plates (Costar 3922) using 200 μl […] (BSA, Heat Shock, Fraction V-American Bio AB01088-00100) in PBS for 2 hours at 25° C. with moderate shaking. BSA was removed and plates were washed. NHS-Ester ligands were diluted in PBS to 250 μM then added (100 μl/well) and incubated for 1 hour at 37° C. […] Plates are removed from the incubator and washed. CD16a/Streptavidin.HRP mixture was added to the plates (100 μl/well) and incubated for 1 hour at 25° C. with gentle shaking. Wash plates. Substrate (Super Signal ELISA Pico Chemiluminescent Substrate-Thermo 37069) was added (100 μl/well) and plates were incubated for 5 minutes at 25° C. with gentle shaking. Luminescence was then measured on the Biotek Synergy H1 microplate reader.

[5] = molecular target: T2, CD16a158F; experiment: NHS-Ester ELISA Assay; set-up: purchased Acro Biosystems CDA-H82E8; settings: NHS-Ester ligands 250 μM; 10 nM biotinylated CD16a protein
Procedure: as §2

[6] = test system: CD32a-R167; experiment: Biotin ELISA, interaction with various receptors (Example 55); settings: three replicate values per compound
Procedure: as §1
(§3) Using similar methods as Examples 47 or 53, interactions with a number of receptors were measured. In some embodiments, “stock” is antibody only, and “control” is an antibody that went through the same procedure except using DMSO only as opposed to a compound. When contacted with targeting moieties such as antibodies in the Examples, compounds, e.g., I-95, I-96, etc. can react through their reactive groups

[7] = molecular target: CD64 (Homo sapiens, UniProt P12314); experiment: as above; settings: three replicate values per compound
Chain of CD64 (P12314 16-374): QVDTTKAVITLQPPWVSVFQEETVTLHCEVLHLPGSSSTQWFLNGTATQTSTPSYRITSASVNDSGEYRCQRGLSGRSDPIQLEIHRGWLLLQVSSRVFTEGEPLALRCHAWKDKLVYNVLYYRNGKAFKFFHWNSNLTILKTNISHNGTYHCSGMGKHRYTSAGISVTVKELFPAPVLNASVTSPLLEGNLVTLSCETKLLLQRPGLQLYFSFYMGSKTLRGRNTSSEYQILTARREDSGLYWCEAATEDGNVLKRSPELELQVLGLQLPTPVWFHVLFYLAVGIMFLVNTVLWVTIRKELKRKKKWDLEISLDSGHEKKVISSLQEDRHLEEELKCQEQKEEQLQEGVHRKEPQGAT
Procedure: as §1, §3

[8] = molecular target: T3, CD32a H167 (Homo sapiens, UniProt P12318); experiment: as above; settings: three replicate values per compound
T3 sequence (P12318 36-218 limits assumed): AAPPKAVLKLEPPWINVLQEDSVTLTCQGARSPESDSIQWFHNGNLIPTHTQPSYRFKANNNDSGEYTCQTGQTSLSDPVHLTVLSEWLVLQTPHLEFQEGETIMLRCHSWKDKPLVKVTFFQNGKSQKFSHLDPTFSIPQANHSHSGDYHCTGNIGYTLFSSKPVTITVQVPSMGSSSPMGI
Procedure: as §1, §3

[9] = molecular target: CD3ed (Homo sapiens, UniProt P04234+P07766); experiment: as above; settings: three replicate values per compound
Chain of CD3ed (P07766 23-126 limits assumed): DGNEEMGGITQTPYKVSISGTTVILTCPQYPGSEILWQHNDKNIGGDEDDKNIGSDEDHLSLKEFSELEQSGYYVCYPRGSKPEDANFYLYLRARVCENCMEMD
Chain of CD3ed (P04234 22-105 limits assumed): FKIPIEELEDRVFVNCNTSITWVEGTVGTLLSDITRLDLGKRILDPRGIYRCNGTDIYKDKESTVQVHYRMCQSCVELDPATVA
Procedure: as §1, §3

[10] = molecular target: T4, CD32b (Homo sapiens, UniProt P31994); experiment: as above; settings: three replicate values per compound
T4 sequence (P31994 43-310): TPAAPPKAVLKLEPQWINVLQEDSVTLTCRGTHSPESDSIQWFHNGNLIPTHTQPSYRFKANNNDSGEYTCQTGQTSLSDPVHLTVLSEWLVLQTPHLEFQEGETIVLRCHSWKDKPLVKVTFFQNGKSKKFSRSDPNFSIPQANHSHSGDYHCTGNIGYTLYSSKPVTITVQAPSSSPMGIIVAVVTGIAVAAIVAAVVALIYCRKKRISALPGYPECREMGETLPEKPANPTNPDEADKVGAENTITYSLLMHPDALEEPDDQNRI
Procedure: as §1, §3

[11] = molecular target: T2, CD16a158F; experiment: as above; settings: three replicate values per compound
Procedure: as §1, §3

[12] = molecular target: T1, CD16a158V; experiment: as above; settings: three replicate values per compound
Procedure: as §1, §3

[13] = Biotin ELISA, No Protein (Example 55); settings: three replicate values per compound
Procedure: as §1, §3

Kd [3] [nM]	Compound	NHS ester ELISA-CD16a158V Binding (RLU) [4]	NHS ester ELISA-CD16a158F Binding (RLU) [5]	further results
–	O=C(CCCC[C@@H]1SC[C@@H]2NC(=O)N[C@@H]21)NCCOCCOCCOCCOCCOCCOCCOCCOCCNC(=O)c1ccc(S(=O)(=O)N2CCC3(CC2)NC(=O)N(c2ccccc2)C3=O)cc1 [Compound I-22]	–	–	Biotinylated Ligand ELISA-CD16a158V Binding (RLU) [1]: B (a relative luminescence value (RLU) of 10,000-100,000); Biotinylated Ligand ELISA-CD16a158F Binding (RLU) [2]: B (a relative luminescence value (RLU) of 10,000-100,000)
100 to 500	COc1ccc(N2CC(C(=O)Nc3ccc(-c4cn(CCOCCOCCOCCOCCOCCOCCOCCOCCNC(=O)CCCC[C@@H]5SC[C@@H]6NC(=O)N[C@@H]65)nn4)cc3)CC2=O)cc1 (stereo partly drawn) [Compound I-33]	–	–	–
–	O=C(CCOCCOCCOCCOCCOCCOCCOCCOCCOCCOCCOCCOCCn1cc(-c2cccc(-c3cnc(N4CCC5(CC4)NC(=O)N(Cc4ccccc4)C5=O)nc3)c2)nn1)ON1C(=O)CCC1=O [Compound I-6]	B (a relative luminescence value (RLU) of 10,000-100,000)	B (a relative luminescence value (RLU) of 10,000-100,000)	–
–	COc1ccc(OC)c(N2C(=O)NC3(CCN(C(=O)Nc4cccc(-c5cn(CCOCCOCCOCCOCCOCCOCCOCCOCCOCCOCCOCCOCCC(=O)ON6C(=O)CCC6=O)nn5)c4)CC3)C2=O)c1 [Compound I-1]	C (a relative luminescence value (RLU) of 1,000-10,000)	B (a relative luminescence value (RLU) of 10,000-100,000)	–
500 to 1000	COc1ccc(OC)c(N2CC(C(=O)Nc3ccc(CC4N=NC(COCCOCCOCCOCCOCCOCCOCCOCCNC(=O)CCCC[C@@H]5SC[C@@H]6NC(=O)N[C@@H]65)=N4)cc3)CC2=O)c1 (stereo partly drawn) [Compound I-41]	–	–	–
–	O=C(CCOCCOCCOCCOCCOCCOCCOCCOCCOCCOCCOCCOCCn1cc(-c2ccc(NC(=O)N3CCC4(CC3)NC(=O)N(Cc3ccccc3)C4=O)cc2)nn1)ON1C(=O)CCC1=O [Compound I-2]	C (a relative luminescence value (RLU) of 1,000-10,000)	B (a relative luminescence value (RLU) of 10,000-100,000)	–
100 to 500	COc1ccc(OC)c(N2CC(C(=O)Nc3ccc(Cn4cnc(CCOCCOCCOCCOCCOCCOCCOCCOCCNC(=O)CCCC[C@@H]5SC[C@@H]6NC(=O)N[C@@H]65)n4)cc3)CC2=O)c1 (stereo partly drawn) [Compound I-38]	–	–	–
–	COc1ccc(OC)c(N2CC(C(=O)Nc3ccc(-c4cn(CCOCCOCCOCCOCCOCCOCCOCCOCCC(=O)ON5C(=O)CCC5=O)nn4)cc3)CC2=O)c1 (stereo not drawn) [Compound I-26]	C (a relative luminescence value (RLU) of 1,000-10,000)	C (a relative luminescence value (RLU) of 1,000-10,000)	–
–	COc1ccc(OC)c(N2CC(C(=O)Nc3ccc(-c4cn(CCOCCOCCOCCOCCOCCOCCOCCOCCOCCOCCOCCOCCC(=O)ON5C(=O)CCC5=O)nn4)cc3)CC2=O)c1 (stereo not drawn) [Compound I-25]	C (a relative luminescence value (RLU) of 1,000-10,000)	C (a relative luminescence value (RLU) of 1,000-10,000)	–
500 to 1000	CCOc1ccc(N2CC(C(=O)N3CCC(C(=O)NCCOCCOCCOCCOCCOCCOCCOCCOCCNC(=O)CCCC[C@@H]4SC[C@@H]5NC(=O)N[C@@H]54)CC3)CC2=O)cc1 (stereo partly drawn) [Compound I-37]	–	–	–
100 to 500	COc1ccccc1N1CC(C(=O)Nc2ccc(-c3cn(CCOCCOCCOCCOCCOCCOCCOCCOCCNC(=O)CCCC[C@@H]4SC[C@@H]5NC(=O)N[C@@H]54)nn3)cc2)CC1=O (stereo partly drawn) [Compound I-35]	–	–	–
–	O=C(CCOCCOCCOCCOCCOCCOCCOCCOCCOCCOCCOCCOCCn1cc(-c2cnc(N3CCC4(CC3)NC(=O)N(Cc3ccccc3)C4=O)nc2)nn1)ON1C(=O)CCC1=O [Compound I-7]	B (a relative luminescence value (RLU) of 10,000-100,000)	C (a relative luminescence value (RLU) of 1,000-10,000)	–
100 to 500	COc1cccc(N2CC(C(=O)Nc3ccc(-c4cn(CCOCCOCCOCCOCCOCCOCCOCCOCCNC(=O)CCCC[C@@H]5SC[C@@H]6NC(=O)N[C@@H]65)nn4)cc3)CC2=O)c1 (stereo partly drawn) [Compound I-34]	–	–	–
100 to 500	COc1ccc(OC)c(N2CC(C(=O)Nc3cccc(-c4cn(CCOCCOCCOCCOCCOCCOCCOCCOCCNC(=O)CCCC[C@@H]5SC[C@@H]6NC(=O)N[C@@H]65)nn4)c3)CC2=O)c1 (stereo partly drawn) [Compound I-40]	–	–	–
–	O=C(CCOCCOCCOCCOCCOCCOCCOCCOCCOCCOCCOCCOCCn1cc(-c2cccc(NC(=O)N3CCC4(CC3)NC(=O)N(c3ccccc3)C4=O)c2)nn1)ON1C(=O)CCC1=O [Compound I-9]	B (a relative luminescence value (RLU) of 10,000-100,000)	B (a relative luminescence value (RLU) of 10,000-100,000)	–
–	O=C(CCCC[C@@H]1SC[C@@H]2NC(=O)N[C@@H]21)NCCOCCOCCOCCOCCOCCOCCOCCOCCNC(=O)c1cnc(N2CCC3(CC2)NC(=O)N(c2ccccc2)C3=O)s1 [Compound I-13, 5-[(3aS,4S,6aR)-2-oxo-hexahydro-1H-thieno[3,4-d]imidazol-4-yl]-N-{26-[(2-{2,4-dioxo-3-phenyl-1,3,8-triazaspiro[4.5]decan-8-yl}-1,3-thiazol-5-yl)formamido]-3,6,9,12,15,18,21,24-octaoxahexacosan-1-yl}pentanamide]	–	–	Biotin ELISA Results CD32a-R167 [6]: 8032 and 6483 and 10638; Biotin ELISA Results CD64 [7]: 45845 and 36876 and 49943; Biotin ELISA Results CD32a-H167 [8]: 15516 and 14898 and 8681; Biotin ELISA Results CD3ed [9]: 4252 and 15476 and 72836*; Biotin ELISA Results CD32b [10]: 7721 and 7105 and 9481; Biotin ELISA Results CD16a-158F [11]: 10817 and 15276 and 9605; Biotin ELISA Results CD16a-158V [12]: 4673 and 4920 and 4565; Biotin ELISA Results No Protein [13]: 6804 and 19233 and 14386
–	O=C(CCOCCOCCOCCOCCOCCOCCOCCOCCOCCOCCOCCOCCNC(=O)c1cnc(N2CCC3(CC2)NC(=O)N(Cc2ccccc2)C3=O)nc1)ON1C(=O)CCC1=O [Compound I-8]	B (a relative luminescence value (RLU) of 10,000-100,000)	C (a relative luminescence value (RLU) of 1,000-10,000)	–
